Test results published in publication PMC6276031 (International Journal of Neuropsychopharmacology, 2018).

What was measured:
[1] = molecular target: T1, dopamine D2 receptor (D2R, D2L long isoform) (Homo sapiens, UniProt P14416); test: cell-based; conditions: read-out: % of the mean response to 1 μM dopamine
[2] = molecular target: T1, dopamine D2 receptor (D2R, D2L long isoform); test: GIRK1/[…] current activation in Xenopus oocytes; type: cell-based
[3] = molecular target: dopamine D3 receptor (D3R) (Homo sapiens, UniProt P35462); test: GIRK1/[…] current activation in Xenopus oocytes expressing D3R; type: cell-based
dopamine D3 receptor (D3R), sequence (P35462 whole entry): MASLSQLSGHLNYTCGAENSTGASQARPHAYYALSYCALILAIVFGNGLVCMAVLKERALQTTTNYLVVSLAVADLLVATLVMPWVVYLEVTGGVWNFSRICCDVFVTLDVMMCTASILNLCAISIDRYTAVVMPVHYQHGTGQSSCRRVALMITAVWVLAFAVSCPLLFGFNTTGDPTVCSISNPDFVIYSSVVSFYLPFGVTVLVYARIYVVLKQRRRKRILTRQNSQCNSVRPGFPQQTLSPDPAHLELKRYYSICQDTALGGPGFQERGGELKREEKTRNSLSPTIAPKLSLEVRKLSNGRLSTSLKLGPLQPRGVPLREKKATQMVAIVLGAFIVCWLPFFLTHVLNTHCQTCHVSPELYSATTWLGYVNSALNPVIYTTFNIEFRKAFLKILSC

T1 sequence (P14416 whole entry, canonical isoform): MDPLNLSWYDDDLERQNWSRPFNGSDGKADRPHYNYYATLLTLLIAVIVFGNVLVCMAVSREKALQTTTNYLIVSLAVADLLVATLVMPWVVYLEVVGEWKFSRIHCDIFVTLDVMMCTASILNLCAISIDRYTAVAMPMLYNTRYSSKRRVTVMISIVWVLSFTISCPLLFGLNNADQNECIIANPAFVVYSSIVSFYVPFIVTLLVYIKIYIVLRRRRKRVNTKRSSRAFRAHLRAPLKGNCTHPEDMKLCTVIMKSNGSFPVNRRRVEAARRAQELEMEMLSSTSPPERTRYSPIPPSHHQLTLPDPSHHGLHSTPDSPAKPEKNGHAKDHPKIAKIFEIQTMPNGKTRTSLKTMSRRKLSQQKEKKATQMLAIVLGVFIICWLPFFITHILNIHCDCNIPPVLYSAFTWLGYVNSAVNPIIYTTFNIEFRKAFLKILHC

| EC50 [2] [µM] | EC50 [3] [µM] | Compound | Emax [1] [%] |
| --- | --- | --- | --- |
|  |  | CCCN1CCC[C@@H](c2cccc(O)c2)C1 [(-)-3-PPP] | 27.7 ± 7.5 |
| 0.185 | 0.0621 | Clc1cccc(C2CCN(CCCOc3ccc4scnc4c3)CC2)c1Cl [UNC9994] |  |
